This is an account of results in US10745377B2, “Piperidine or piperazine linked imidazole and triazole derivatives and methods of use” (MERCK SHARP & DOHME CORP., priority 2013, dated 2020).

What all share (type): biochemical
One test has as its target T1, CYP3A4 (Homo sapiens, UniProt P08684).
T1 construct: 0.1 mg/mL protein human liver microsomes (BD Gentest); tissue BD Gentest; host or cells: human liver microsomes
As to the kind of experiment: Cocktail assay for CYPs in human liver microsomes: CYP3A4 (midazolam 1′-hydroxylation). Conditions: human liver microsomes 0.1 mg/mL, 2 μM midazolam, 10 min at 37° C., 6 concentrations up to 10 μM; read-out: IC50 (nM) CYP3A4.

The next test addresses T2, CYP1A2 (Homo sapiens, UniProt P05177).
T2 construct: 0.1 mg/mL protein human liver microsomes (BD Gentest); tissue BD Gentest; host or cells: human liver microsomes
T2 sequence (P05177 1-516): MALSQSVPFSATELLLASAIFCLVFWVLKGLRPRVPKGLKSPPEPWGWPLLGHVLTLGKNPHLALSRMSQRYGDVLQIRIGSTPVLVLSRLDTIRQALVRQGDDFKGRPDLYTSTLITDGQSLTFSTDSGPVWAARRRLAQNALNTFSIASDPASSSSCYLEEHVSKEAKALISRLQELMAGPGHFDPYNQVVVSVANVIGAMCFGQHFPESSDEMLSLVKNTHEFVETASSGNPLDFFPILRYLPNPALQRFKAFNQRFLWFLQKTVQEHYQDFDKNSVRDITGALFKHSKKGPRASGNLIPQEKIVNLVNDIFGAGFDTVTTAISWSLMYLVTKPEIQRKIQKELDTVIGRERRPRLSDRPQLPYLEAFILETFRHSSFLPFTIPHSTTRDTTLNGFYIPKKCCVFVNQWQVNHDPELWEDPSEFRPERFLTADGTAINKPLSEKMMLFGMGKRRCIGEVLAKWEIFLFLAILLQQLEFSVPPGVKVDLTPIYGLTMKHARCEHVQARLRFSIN
As to the kind of experiment: Cocktail assay for CYPs in human liver microsomes: CYP1A2 (phenacetin O-deethylation). Conditions: human liver microsomes 0.1 mg/mL, 10 μM phenacetin, 10 min at 37° C., 6 concentrations up to 10 μM; read-out: IC50 (nM) CYP1A2. (Liver microsomes are a subcellular fraction often used to study metabolism.)

The next test deals with T3, CYP2C9 (Homo sapiens, UniProt P11712).
T3 construct: 0.1 mg/mL protein human liver microsomes (BD Gentest); tissue BD Gentest; host or cells: human liver microsomes
T3 sequence (P11712 whole entry): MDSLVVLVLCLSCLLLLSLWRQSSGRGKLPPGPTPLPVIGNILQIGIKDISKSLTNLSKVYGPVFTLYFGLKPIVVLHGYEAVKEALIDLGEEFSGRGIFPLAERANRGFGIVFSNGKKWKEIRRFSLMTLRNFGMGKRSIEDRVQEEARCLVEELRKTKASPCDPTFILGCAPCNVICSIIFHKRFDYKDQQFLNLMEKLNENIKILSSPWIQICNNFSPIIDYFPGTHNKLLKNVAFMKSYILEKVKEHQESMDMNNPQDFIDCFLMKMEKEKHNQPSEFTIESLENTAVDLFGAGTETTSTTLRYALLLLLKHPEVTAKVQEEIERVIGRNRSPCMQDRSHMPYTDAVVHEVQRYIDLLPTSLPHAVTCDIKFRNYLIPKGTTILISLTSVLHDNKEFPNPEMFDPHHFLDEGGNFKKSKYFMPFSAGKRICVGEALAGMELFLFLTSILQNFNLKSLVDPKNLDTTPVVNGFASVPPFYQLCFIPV
As to the kind of experiment: Cocktail assay for CYPs in human liver microsomes: CYP2C9 (diclofenac 4′-hydroxylation). Conditions: human liver microsomes 0.1 mg/mL, 5 μM diclofenac, 10 min at 37° C., 6 concentrations up to 10 μM; read-out: IC50 (nM) CYP2C9.

The target in a further test is T4, CYP2C19 (Homo sapiens, UniProt P33261).
T4 construct: 0.1 mg/mL protein human liver microsomes (BD Gentest); tissue BD Gentest; host or cells: human liver microsomes
T4 sequence (P33261 whole entry): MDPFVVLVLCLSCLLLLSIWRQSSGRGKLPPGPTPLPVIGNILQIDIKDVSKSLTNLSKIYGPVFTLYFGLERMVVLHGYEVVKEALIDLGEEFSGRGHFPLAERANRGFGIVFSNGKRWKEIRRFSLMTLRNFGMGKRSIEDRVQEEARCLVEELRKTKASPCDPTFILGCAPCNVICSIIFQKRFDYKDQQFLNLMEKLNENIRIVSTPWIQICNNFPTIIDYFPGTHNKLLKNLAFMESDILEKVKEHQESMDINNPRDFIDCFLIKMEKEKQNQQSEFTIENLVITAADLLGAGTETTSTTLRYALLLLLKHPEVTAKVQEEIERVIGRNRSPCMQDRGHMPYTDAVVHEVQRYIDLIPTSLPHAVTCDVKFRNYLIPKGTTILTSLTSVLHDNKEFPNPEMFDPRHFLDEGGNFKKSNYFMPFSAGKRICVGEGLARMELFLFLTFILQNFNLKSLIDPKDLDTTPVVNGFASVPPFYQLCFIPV
Put plainly: Cocktail assay for CYPs in human liver microsomes: CYP2C19 (mephenytoin 4′-hydroxylation). As to conditions: human liver microsomes 0.1 mg/mL, 30 μM mephenytoin, 10 min at 37° C., 6 concentrations up to 10 μM; read-out: IC50 (nM) CYP2C19.

The next test has as its target T5, CYP2D6 (Homo sapiens, UniProt P10635).
T5 construct: 0.1 mg/mL protein human liver microsomes (BD Gentest); tissue BD Gentest; host or cells: human liver microsomes
As to the kind of experiment: Cocktail assay for CYPs in human liver microsomes: CYP2D6 (dextromethorphan O-demethylation). As to conditions: human liver microsomes 0.1 mg/mL, 5 μM dextromethorphan, 10 min at 37° C., 6 concentrations up to 10 μM; read-out: IC50 (nM) CYP2D6.

T1 sequence (P08684 whole entry): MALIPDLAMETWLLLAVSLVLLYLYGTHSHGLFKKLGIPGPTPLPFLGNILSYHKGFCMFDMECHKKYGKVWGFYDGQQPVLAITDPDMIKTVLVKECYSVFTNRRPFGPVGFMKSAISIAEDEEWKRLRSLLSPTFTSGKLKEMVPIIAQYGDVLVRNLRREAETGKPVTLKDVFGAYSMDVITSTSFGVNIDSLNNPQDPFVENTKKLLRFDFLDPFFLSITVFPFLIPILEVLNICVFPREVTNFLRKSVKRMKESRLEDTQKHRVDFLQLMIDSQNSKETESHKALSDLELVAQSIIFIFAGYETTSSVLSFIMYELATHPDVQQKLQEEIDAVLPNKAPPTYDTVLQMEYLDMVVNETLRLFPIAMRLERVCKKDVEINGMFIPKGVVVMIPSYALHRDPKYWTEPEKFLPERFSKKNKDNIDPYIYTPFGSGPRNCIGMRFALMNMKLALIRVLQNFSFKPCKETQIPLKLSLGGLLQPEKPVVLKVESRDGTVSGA
T5 sequence (P10635 whole entry): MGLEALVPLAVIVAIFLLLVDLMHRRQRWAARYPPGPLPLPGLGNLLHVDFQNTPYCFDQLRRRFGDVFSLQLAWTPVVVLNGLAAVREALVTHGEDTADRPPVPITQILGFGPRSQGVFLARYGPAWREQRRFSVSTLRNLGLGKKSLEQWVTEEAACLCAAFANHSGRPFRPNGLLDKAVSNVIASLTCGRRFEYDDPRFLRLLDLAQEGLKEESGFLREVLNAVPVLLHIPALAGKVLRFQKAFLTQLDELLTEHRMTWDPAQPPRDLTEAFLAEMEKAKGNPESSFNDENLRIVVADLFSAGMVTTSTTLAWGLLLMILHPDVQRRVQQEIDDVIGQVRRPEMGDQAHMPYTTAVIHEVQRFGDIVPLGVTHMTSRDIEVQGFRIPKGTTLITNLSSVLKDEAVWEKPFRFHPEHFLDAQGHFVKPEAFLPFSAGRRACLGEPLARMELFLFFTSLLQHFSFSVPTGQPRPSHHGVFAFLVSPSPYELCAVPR
Experimental for CYP1A2: (§1) Determination of IC50 in a Cocktail Assay for CYPs 1A2, 2C9, 2C19, 2D6 and 3A4
(§2) This assay was performed in a standard 96-well plate design. […] The incubation substrate mix contains 10 μM phenacetin (1A2), 5 μM diclofenac (2C9), 30 μM mephenytoin (2C19), 5 μM dextromethorphan (2D6) and 2 μM midazolam (3A4), 0.1 mg/mL protein human liver microsomes (BD Gentest), 1 mM NAPDH, 3.3 mM MgCl2 and 100 mM potassium phosphate buffer (pH 7.4). The production of the metabolite of each probe substrate was determined after incubation for 10 min at 37° C. Quantitation of the metabolite peak area ratio against an internal standard (tolbutamide) was determined by LC/MS/MS analysis following acetonitrile treatment of the incubations.
(§3) Samples were analyzed in the MRM mode with a SCIEX API-4000 mass spectrometer (Applied Biosystems, Foster City, Calif.), with a Shimadzu LC-20 AD pump (Shimadzu corporation, Kyoto, JP) and a CTC PAL autosampler (Agilent Technologies, Switzerland). A Phenomenex, Luna, 5 μm, 100 A, 2.00×30 mm HPLC column was used for the separation. The mobile phases were: (A) 0.1% formic acid in water and (B) 0.1% formic acid in acetonitrile. The binary gradient was as follows.
(§4) The mass spectrum parameters were as follows:
(§5) The LC/MS/MS parameters for the analytes were as follows.
(§6) The peak area ratio of the analyte to the internal standard was used to quantify the metabolite. The values of peak area ratios in the presence of test compound were compared to those of maximum or minimum controls and were expressed as % inhibition by interpolating between the maximum and minimum peak area ratios. Incubations with no inhibitor were defined as the maxima.
(§7) The following equation was used to calculate the % inhibition: [1−[(X−Low control)/(High control−Low control)]]*100
(§8) For the IC50 calculation, SigmaPlot was used to plot the mean % inhibition versus the test compound concentrations and for non-linear regression analysis of the data. Depending on the range of data points defining the inhibition curve, the data may have been fit to the 4-parameter logistic equation.
Experimental for CYP2C19: as §1, §2, §3, §4, §5, §6, §7, §8
Experimental for CYP2C9: as §1, §2, §3, §4, §5, §6, §7, §8
Experimental for CYP2D6: as §1, §2, §3, §4, §5, §6, §7, §8
Experimental for CYP3A4: as §1, §2, §3, §4, §5, §6, §7, §8

Usually IC50 stands for the concentration that gives 50% inhibition. Regarding `CC(C1CCOCC1)n1cncc1CN1CCN(c2nc3ccccc3o2)CC1` (centres unmarked) [Compound 32, 2-(4-((1-(1-(tetra-hydro-2H-pyran-4-yl)ethyl)-1H-imidazol-5-yl)methyl)piperazin-1-yl)benzo[d] oxazole], the IC50 at CYP3A4 was 24 nM; at CYP1A2 it was > 10000 nM; on CYP2C9, > 10000 nM; on CYP2C19 it was > 10000 nM; on CYP2D6, > 10000 nM.

In the case of `c1ccc(CCn2cncc2CN2CCN(c3nc4ccccc4o3)CC2)nc1` [Compound 33, 2-(4-((1-(2-(pyridin-2-yl)ethyl)-1H-imidazol-5-yl)methyl)piperazin-1-yl)benzo[d] oxazole], the IC50 at CYP3A4 is 35 nM; at CYP1A2, > 10000 nM; on CYP2C9, 6520 nM; on CYP2C19, ≥ 10000 nM; at CYP2D6, 2090 nM.

Turning to `CC(c1ccc(S(C)(=O)=O)cc1)n1cncc1CN1CCN(c2nc3ccccc3o2)CC1` (centres unmarked) [Compound 34, 2-(4-((1-(1-(4-(methylsulfonyl)phenyl)ethyl)-1H-imidazol-5-yl)methyl)piperazin-1-yl)benzo [d]oxazole], the IC50 at CYP3A4 was 8 nM; at CYP1A2 it was > 10000 nM; at CYP2C9, ≥ 10000 nM; at CYP2C19 it was ≥ 10000 nM; on CYP2D6 it was 2520 nM.

As to `CC(C1CCOCC1)n1cncc1CN1CCN(c2nc3ccc(F)c(F)c3o2)CC1` (centres unmarked) [Compound 35, 6,7-difluoro-2-(4-((1-(1-(tetrahydro-2H-pyran-4-yl)ethyl)-1H-imidazol-5-yl)methyl)piperazin-1-yl) benzo[d]oxazole], the IC50 on CYP3A4 is 4 nM; at CYP1A2 it was > 10000 nM; on CYP2C9, > 10000 nM; on CYP2C19, > 10000 nM; on CYP2D6 it was > 10000 nM.

As to `CC(Cn1cncc1CN1CCN(c2nc3ccccc3o2)CC1)C(F)(F)F` (centres unmarked) [Compound 36, 2-(4-((1-(3,3,3-trifluoro-2-methylpropyl)-1H-imidazol-5-yl)methyl)piperazin-1-yl)benzo[d]oxazole], the IC50 at CYP3A4 is 45 nM; at CYP1A2, > 10000 nM; at CYP2C9, 6980 nM; on CYP2C19 it was 4260 nM; at CYP2D6 it was 1720 nM.

With `Fc1ccc(CCn2cncc2CN2CCN(c3nc4ccccc4o3)CC2)cc1` [Compound 37, 2-(4-((1-(4-fluorophenethyl)-1H-imidazol-5-yl)methyl)piperazin-1-yl)benzo[d]oxazole], the 50% inhibitory concentration (IC50) on CYP3A4 is 8 nM; on CYP1A2, > 10000 nM; at CYP2C9 it was 4360 nM; on CYP2C19, 5380 nM; on CYP2D6 it was 1410 nM.

With `COc1ccc2nc(N3CCN(Cc4cncn4[C@H](C)c4ccc(C#N)cc4)CC3)sc2c1` [Compound 38, (R)-4-(1-(5-((4-(6-methoxybenzo[d]thiazol-2-yl)piperazin-1-yl)methyl)-1H-imidazol-1-yl)ethyl)benzonitrile], the IC50 on CYP3A4 was 31 nM; on CYP1A2 it was > 10000 nM; at CYP2C9 it was 6470 nM; on CYP2C19, 4720 nM; at CYP2D6 it was 3690 nM.

As to `C[C@H](c1ccc(C#N)cc1)n1cncc1CN1CCN(c2nc3ccccc3[nH]2)CC1` [Compound 39, (R)-4-(1-(5-((4-(1H-benzo[d]imidazol-2-yl)piperazin-1-yl)methyl)-1H-imidazol-1-yl)ethyl)benzonitrile], the half-maximal inhibitory concentration (IC50) is 23 nM on CYP3A4; > 10000 nM at CYP1A2; > 10000 nM at CYP2C9; > 10000 nM at CYP2C19; 1580 nM at CYP2D6.

As to `CCS(=O)(=O)c1cnc(N2CCN(Cc3cncn3[C@H](C)Cc3ccc(F)cc3)CC2)s1` [Compound 40, (R)-5-(ethylsulfonyl)-2-(4-((1-(1-(4-fluorophenyl)propan-2-yl)-1H-imidazol-5-yl)methyl)piperazin-1-yl)thiazole], the IC50 on CYP3A4 was 27 nM; at CYP1A2 it was > 10000 nM; on CYP2C9, > 10000 nM; at CYP2C19, > 10000 nM; on CYP2D6, 5260 nM.

For `CCS(=O)(=O)CCc1cnc(N2CCN(Cc3cncn3[C@H](C)Cc3ccc(F)cc3)CC2)s1` [Compound 41, (R)-5-(2-(ethylsulfonyl)ethyl)-2-(4-((1-(1-(4-fluorophenyl)propan-2-yl)-1H-imidazol-5-yl)methyl)piperazin-1-yl)thiazole], the IC50 at CYP3A4 was 30 nM; on CYP1A2, > 10000 nM; on CYP2C9, 2700 nM; at CYP2C19 it was 2230 nM; at CYP2D6 it was 2380 nM.

`CCS(=O)(=O)CCc1cnc(N2CCN(Cc3cncn3[C@H](C)c3ccc(Cl)cc3)CC2)s1` [Compound 42, (R)-2-(4-((1-(1-(4-chloro-phenyl)ethyl)-1H-imidazol-5-yl)methyl)piperazin-1-yl)-5-(2-(ethyl-sulfonyl)ethyl)thiazole]: the half-maximal inhibitory concentration (IC50) on CYP3A4 was 22 nM; at CYP1A2, > 10000 nM; at CYP2C9, > 10000 nM; at CYP2C19, 2400 nM; on CYP2D6 it was 1660 nM.

In the case of `CCS(=O)(=O)CCc1cnc(N2CCN(Cc3cncn3[C@H](C)c3ccc(F)cc3)CC2)s1` [Compound 43, (R)-2-(4-((1-(1-(4-fluoro-phenyl)ethyl)-1H-imidazol-5-yl)methyl)piperazin-1-yl)-5-(2-(ethyl-sulfonyl)ethyl) thiazole], the IC50 on CYP3A4 was 50 nM; at CYP1A2, > 10000 nM; at CYP2C9, > 10000 nM; at CYP2C19, 4010 nM; on CYP2D6 it was 2950 nM.

For `C[C@H](c1ccc(C#N)cc1)n1cncc1CN1CCN(c2ccccc2)C(C(=O)NC(C)(C)C)C1` (stereo partly drawn) [Compound 44, N-(tert-butyl)-4-((1-((R)-1-(4-cyanophenyl)ethyl)-1H-imidazol-5-yl)methyl)-1-phenylpiperazine-2-carboxamide], the IC50 was 29 nM on CYP3A4; > 10000 nM at CYP1A2; 5090 nM at CYP2C9; 5840 nM on CYP2C19; > 10000 nM on CYP2D6.

In the case of `C[C@H](c1ccc(C#N)cc1)n1cncc1CN1CCN(c2ccccc2)C(C(=O)N2CCOCC2)C1` (stereo partly drawn) [Compound 46, 4-((1R)-1-(5-((3-(morpholine-4-carbonyl)-4-phenylpiperazin-1-yl)methyl)-1H-imidazol-1-yl)ethyl) benzonitrile], the IC50 at CYP3A4 is 46 nM; at CYP1A2 it was > 10000 nM; on CYP2C9, > 10000 nM; on CYP2C19 it was > 10000 nM; on CYP2D6, > 10000 nM.

Turning to `C[C@H](c1ccc(C#N)cc1)n1cncc1CN1CCN(c2ccccc2)C(C(=O)N2CCC(F)(F)CC2)C1` (stereo partly drawn) [Compound 47, 4-((1R)-1-(5-((3-(4,4-difluoropiperidine-1-carbonyl)-4-phenylpiperazin-1-yl)methyl)-1H-imidazol-1-yl)ethyl) benzonitrile], the IC50 at CYP3A4 was 20 nM; on CYP1A2, > 10000 nM; on CYP2C9 it was 9270 nM; at CYP2C19, 7830 nM; on CYP2D6 it was > 10000 nM.

For `C[C@H](c1ccc(F)cc1)n1cncc1CN1CCN(c2ccccc2)[C@H](C(=O)N2CCCCC2)C1` [Compound 48], the IC50 at CYP3A4 is 31 nM; on CYP1A2, > 10000 nM; on CYP2C9, 1470 nM; on CYP2C19, 2000 nM; at CYP2D6 it was 4890 nM.
